This is an account of results in US20180064730A1 (priority 2014, published 2018).

Data set [1] has as its system IL-8 secretion from CF lung epithelial cells. The data set can be described thus: Suppression of constitutive IL-8 secretion from CF lung epithelial cells. The settings on record: for IC50: constitutive IL-8 hypersecretion, read-out: K50 (concentration causing a 50% reduction of IL-8 secretion). In kind it is cell-based, human. The source says:
Analysis of cardiac glycoside activities identifies a structure-activity-relationship for IL-8 suppression. […] Using all the data we were also able to derive a structure-activity relationship (see Table 1). Briefly, suppression of IL-8 secretion from CF lung epithelial cells is optimally promoted by the presence of glycosyl moieties at the 3-position of the cholesterol nucleus, and by the absence of oxygen-containing substitutions at or near the 12-position on the C ring. Activity declines when glycosyl moieties are absent from the 3-position, and when oxygen-containing substitutions are made at or near the 12-position on the C ring. […] We therefore give the equatorial 12-position and its neighbors crucial negative pharmacophoric importance, and glycosidic substitution at the 3-position positive pharmacophoric importance for the control of IL-8 secretion from CF lung epithelial cells.
(§1) Previously published data had implicated a dysfunctional TNFα/NFκB signaling pathway as responsible for the pro-inflammatory phenotype of the CF lung. […] (46 Srivastava et al, 2004) (47 Yang Q, et al, 2005).

Data set [2] relates to CF children. The note with it: CF vs control children; cited from earlier work.
Data set [3] has as its system TNFα/NFκB signaling pathway. Description: Reverse Phase Protein Microarray of IB3-1 and CFTR-repaired IB3-1/S9 cells. In kind it is cell-based, human. The settings on record: ID90 concentrations; IB3-1 and IB3-1/S9 cells.
Source text: as §1

For data set [4], the target named is T1, TNF-alpha-activated TNFR and TRADD (Homo sapiens, UniProt P19438+Q15628).
T1 sequence (Q15628 1-312): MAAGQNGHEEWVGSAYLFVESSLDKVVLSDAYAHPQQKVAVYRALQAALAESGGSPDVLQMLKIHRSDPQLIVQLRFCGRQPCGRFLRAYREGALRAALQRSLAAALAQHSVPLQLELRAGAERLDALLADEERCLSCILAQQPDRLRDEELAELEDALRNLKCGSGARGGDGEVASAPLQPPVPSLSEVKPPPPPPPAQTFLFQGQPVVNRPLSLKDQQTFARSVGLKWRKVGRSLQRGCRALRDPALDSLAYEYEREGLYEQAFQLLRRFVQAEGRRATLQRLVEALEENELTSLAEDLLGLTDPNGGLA
T1 sequence (P19438 22-455 limits assumed): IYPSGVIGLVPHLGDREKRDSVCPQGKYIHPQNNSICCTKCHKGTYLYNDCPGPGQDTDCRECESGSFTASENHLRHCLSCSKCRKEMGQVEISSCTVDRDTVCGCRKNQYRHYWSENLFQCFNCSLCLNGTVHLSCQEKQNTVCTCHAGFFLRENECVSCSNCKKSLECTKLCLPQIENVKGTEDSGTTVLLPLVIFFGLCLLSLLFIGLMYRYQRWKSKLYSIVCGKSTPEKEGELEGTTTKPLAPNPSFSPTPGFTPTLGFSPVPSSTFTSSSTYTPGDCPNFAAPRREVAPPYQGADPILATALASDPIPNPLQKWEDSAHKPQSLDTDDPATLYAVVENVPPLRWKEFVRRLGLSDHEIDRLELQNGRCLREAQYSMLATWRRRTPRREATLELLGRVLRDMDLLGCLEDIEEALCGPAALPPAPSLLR
Description: Interaction between TNF-alpha-activated TNFR and TRADD. The source says: Increased expression of TRADD is associated with a greater rate of decline in CF lung function. […] Trend-lines are based on data for female CF patients, who make up the majority of the patients.

The subject of data set [5] is CF patients. The data set can be described thus: Phase II clinical trial of digitoxin in cystic fibrosis: adverse events. The note with it: for Pulm, upper_resp adverse events (cases) / Dermatolog adverse events / Gastrointestinal adverse events / General adverse events / Musculoskel adverse events / Neurological adverse events / Reproductive adverse events / Total (all) adverse events (cases): 28 days, n = 8; for Incidence Rate, all adverse events / Incidence Rate, pulmonary adverse events: person-time 224. The method, then:
Experiment# 1.1. Study design and methods: The study was a randomized, double-blind, placebo controlled, repeat dosing escalation trial. Adults 18-45 years of age with a diagnosis of CF and meet Inclusion/exclusion criteria were selected for the trial. The 24 evaluable patients were studied at a single site, and randomized with respect to drug treatment and placebo at a ratio of 2:1, respectively. Screening included a 24 hour Holter monitor to screen for possible for baseline dysrhythmias. […] Dosing was once a day for 28 days with 8 patients in each group.
The inclusion criteria included (i) male or female, 18 to 45 years of age; (ii) confirmed diagnosis of CF by sweat test (a sweat chloride concentration≧60 meq/L), and a genotype consistent with a CF diagnosis; (iii) FEV 1, % PRED≧40%; (iv) clinically stable with no evidence of acute upper respiratory or lower respiratory tract infection or current pulmonary exacerbation; (v) ability to perform spirometry; (vi) weight≧45 kg at screening and at visit #1 (dosing).
During this period, subjects were not taking macrolide antibiotics.

For data set [6], the system named is Wuhan influenza virus induced lung inflammation. Description: Rodent influenza lung inflammation model, lung cytokines/chemokines by ELISA. It is filed as in vivo, cotton rat. The method, then:
Applicant previously conducted a study on a mammal, a rodent with induced lung inflammation from Wuhan influenza virus.
Lung tissue was harvested on day 7, and assayed in terms of pg/ml for iFN-Gamma, GRO/KC, MTP-2, TNF-ALPHA, IL-1B, MCP-1. TGF-Beta, and GM-CSF. Rodents lack IL-8, and instead have GRO/KC and MIP-2.
Methods: The assays for different cytokines and chemokines were performed with commercial micro-sandwich ELISA assays. (Searchlight System, Pierce-Thermo). The results shown are for 22 patients, including 14 females and 8 males.
(An ELISA detects its analyte on a solid surface through an enzyme-linked reagent.)

The test system of data set [7] is TNFalpha-activated NFκB activation and IL-8 expression. The settings on record: CF airway epithelial cells; cited from earlier work.
For data set [8] the following is noted: cited from earlier work.
Data set [9] has as its system control patients / heart failure patients. The settings on record: cited from earlier work.
Setting [10] is: 3, 10 and 30 mg/kg daily, lung harvested day 7.

Several values for one entry are separate records, joined by “and”; a condition that tells them apart may be missing. Equal entries are not always repeated. Entries after “also recorded” stand apart in the source; their conditions may differ. Where two headings read alike, the source gives them in different places.

On to `C[C@H]1O[C@@H](O[C@H]2[C@@H](O)C[C@H](O[C@H]3[C@@H](O)C[C@H](O[C@H]4CC[C@@]5(C)[C@H](CC[C@@H]6[C@@H]5C[C@@H](O)[C@]5(C)[C@@H](C7=CC(=O)OC7)CC[C@]65O)C4)O[C@@H]3C)O[C@@H]2C)C[C@H](O)[C@@H]1O` [Digoxin], for which the IC50 in data set [1] (Homo sapiens, Epithelial cell) was 0.027 µM; in data set [1], 0.0271 µM. Further, the “exercise capacity or exercising cardiac function” value in [2] is “no difference”.

For `C[C@@H]1O[C@@H](O[C@H]2C[C@@H](O)[C@]3(CO)[C@H]4[C@H](O)C[C@]5(C)[C@@H](C6=CC(=O)OC6)CC[C@]5(O)[C@@H]4CC[C@]3(O)C2)[C@H](O)[C@H](O)[C@H]1O` [Ouabain], the IC50 in data set [1] (Homo sapiens, Epithelial cell) is 0.0079 µM.

As to `C[C@]12CC[C@H](O)C[C@H]1CC[C@@H]1[C@@H]2CC[C@]2(C)[C@@H](C3=CC(=O)OC3)CC[C@]12O` [Digitoxigenin], the IC50 in data set [1] (Homo sapiens, Epithelial cell) is 0.0736 µM.

For the compound `C[C@]12CC[C@H](O)C[C@H]1CC[C@@H]1[C@@H]2C[C@@H](O)[C@]2(C)[C@@H](C3=CC(=O)OC3)CC[C@]12O` [Digoxigenin], the IC50 in [1] (Homo sapiens, Epithelial cell) was 0.0341 µM.

Take `CC(=O)O[C@H]1CC[C@]2(C=O)[C@H]3CC[C@]4(C)[C@@H](C5=CC(=O)OC5)CC[C@]4(O)[C@@H]3CC[C@]2(O)C1` [Acetyl Strophanthidin]: the IC50 in data set [1] came out at 0.117 µM.

For `CO[C@H]1C[C@H](O[C@H]2CC[C@@]3(C)[C@H](CC[C@@H]4[C@@H]3CC[C@]3(C)[C@@H](C5=CC(=O)OC5)[C@@H](OC(C)=O)C[C@]43O)C2)O[C@@H](C)[C@@H]1O` [Oleandrin], in data set [1] (Homo sapiens, Epithelial cell), the IC50 came out at 0.002 µM.

As for Digitoxigenin 3,12-diAc, the “activity for suppression of IL-8 secretion” value in [1] is given as “Activity is altogether lost”.

On to `C[C@H]1O[C@@H](O[C@H]2[C@@H](O)C[C@H](O[C@H]3[C@@H](O)C[C@H](O[C@H]4CC[C@@]5(C)[C@H](CC[C@@H]6[C@@H]5CC[C@]5(C)[C@@H](C7=CC(=O)OC7)CC[C@]65O)C4)O[C@@H]3C)O[C@@H]2C)C[C@H](O)[C@@H]1O` [Digitoxin], for which the IC50 in data set [1] (Homo sapiens, Epithelial cell) was roughly 0.0009 µM. Further, in [3], the “CF-related constitutive phosphorylation of IKBα” value is recorded as “significantly blocked”, the “CF-related constitutive phosphorylation of NFκB,p65” value is reported as “significantly blocked” and the “phosphorylation of IKKα” value is reported as “somewhat suppressed”. Further, the “interaction between TNF-alpha-activated TNFR and TRADD” value in [4] is “blocks”. Moreover, the “Pulm, upper_resp adverse events (cases)” value in data set [5] (0.05 mg by mouth daily) came out at 9. For the same compound, in data set [5] (0.05 mg daily), the Dermatolog adverse events is listed as 0, the Gastrointestinal adverse events stood at 5, the General adverse events came out at 3 and the Musculoskel adverse events was 2. Further, in data set [5] (0.05 mg daily), the Neurological adverse events is reported as 8; the Reproductive adverse events turned out to be 1; the “Total (all) adverse events (cases)” value was 29; the “Incidence Rate, all adverse events” value came to 0.1295. The “Incidence Rate, pulmonary adverse events” value in data set [5] (0.05 mg daily) was 0.04018. In addition, in data set [5] (0.05 mg vs placebo), the “Inc. rate diff., all adverse events” value is listed as −0.008929; the “Inc. rate diff., pulmonary adverse events” value is reported as −0.008929; the “Prev. frac. pop, all adverse events” value is 0.03571; the “Prev. frac. pop, pulmonary adverse events” value was determined as 0.09091. In [5] (0.05 mg vs placebo), the “prev. frac. ex., all adverse events” value is listed as 0.06897 and the “prev. frac. ex., pulmonary adverse events” value amounted to 0.1818. For the same compound, the “reduction in pulmonary, upper respiratory adverse events, significance” value in [5] (0.05 mg/day vs placebo) is given as “not statistically significant”. Further, the “Pulm, upper_resp adverse events (cases)” value in data set [5] (0.10 mg by mouth daily) was 2. In [5] (0.10 mg daily), this compound showed a Dermatolog adverse events of 1, a Gastrointestinal adverse events of 5, a General adverse events of 3 and a Musculoskel adverse events of 1. Also, in data set [5] (0.10 mg daily), the Neurological adverse events worked out at 2; the Reproductive adverse events stood at 0; the “Total (all) adverse events (cases)” value stood at 15; the “Incidence Rate, all adverse events” value was 0.06696-3 and 0.06696. For the same compound, the “Incidence Rate, pulmonary adverse events” value in [5] (0.10 mg daily) is recorded as 0.008929. In [5] (0.10 mg vs 0.05 mg), the “Inc. rate diff., all adverse events” value is recorded as −0.0625; the “Inc. rate diff., pulmonary adverse events” value is −0.03125; the “Prev. frac. pop, all adverse events” value was 0.2414; the “Prev. frac. pop, pulmonary adverse events” value worked out at 0.3889. In data set [5] (0.10 mg vs 0.05 mg), the “prev. frac. ex., all adverse events” value is 0.4828 and the “prev. frac. ex., pulmonary adverse events” value is 0.7778. In data set [5] (0.10 mg vs placebo), the “Inc. rate diff., all adverse events” value is listed as −0.05357; the “Inc. rate diff., pulmonary adverse events” value is given as −0.04018; the “Prev. frac. pop, all adverse events” value is reported as 0.2222; the “Prev. frac. pop, pulmonary adverse events” value is listed as 0.4091. Further, in [5] (0.10 mg vs placebo), the “prev. frac. ex., all adverse events” value was determined as 0.4444 and the “prev. frac. ex., pulmonary adverse events” value was 0.8182. For the same compound, the “reduction in pulmonary, upper respiratory adverse events, significance” value in [5] (0.10 mg/day (high dose) vs 0.05 mg/day (low dose)) is given as “statistically significant”. The “reduction in pulmonary, upper respiratory adverse events, significance” value in data set [5] (0.10 mg/day vs placebo) is recorded as “statistically significant”. For the same compound, the serious adverse events entry in data set [5] (clinical trial in CF patients) was “no serious adverse events”. For the same compound, in [6] (setting [10]), the “GRO/KC in lung tissue” value was “significant reductions; also recorded: suppressed”, the “IFN-gamma in lung tissue” value is “significant reductions”, the “IL-1B in lung tissue” value is “No significant changes” and the “MCP-1 in lung tissue” value is “significant reductions”. Also, in [6] (setting [10]), the “MIP-2 in lung tissue” value is reported as “significant reductions; also recorded: suppressed”, the “TGF-B in lung tissue” value is on record as “No significant changes” and the “TNF-alpha in lung tissue” value is given as “significant reductions; also recorded: reduced”. Moreover, the “lung inflammation in rodent model” value in [6] (experimental model of lung inflammation) is reported as “profound, dose-dependent reduction”. Further, the “TNFalpha-activated NFκB activation and IL-8 expression” value in data set [7] is “blocks”. Also, the bioavailable in [8] (given by mouth) is recorded as 100%. For the same compound, the “bound to blood and tissue proteins” value in [8] (human, in vivo) was 90%. In data set [9] (U.S. 1995-1998 retrospective, heart failure patients), the “incidence of adverse events vs digoxin” value is “approximately three-fold lower incidence”. In addition, the side effects entry in [9] (control patients, ca. 30 nM in the circulation) is “only modest, or in many cases, undetectable side effects”.
